Values quoted from earlier work as cited in patent US20220024925A1, “Deuterium-Substituted 7-Substituted-2-(Benzylamino)-6-Ozopurine Compounds and Uses Thereof” (Acurx Pharmaceuticals LLC, priority 2020, published 2022).

Key:
[1] = system: other, intestinal Gram-positive anaerobes; conditions: stated in words only; see Wright et al., U.S. Pat. No. 8,796,292
C. diff = conditions: stated in words only; see Wright et al., U.S. Pat. No. 8,796,292

O=c1[nH]c(NCc2ccc(Cl)c(Cl)c2)nc2ncn(CCN3CCOCC3)c12 [Compound I-1, 2-((3,4-dichlorobenzyl)amino)-7-(2-morpholinoethyl)-1,7-dihydro-6H-purin-6-one]
activity against other, intestinal Gram-positive anaerobes [1]: weak activity
activity against the growth of the intestinal anaerobe C. diff (C. diff): potent activity
